According to patent US11084822B2, “Salts and processes of preparing a PI3K inhibitor” (Incyte Corporation, priority 2015, dated 2021):

Experiments:
JAK2 = JAK2 (Homo sapiens (Human), UniProt O60674); assay: JAK2 versus JAK1 (Assay A at 1 mM ATP); format: biochemical; settings: ratio JAK2/JAK1, Assay A at 1 mM ATP
PI3K = PI3K inhibition according to at least one assay described herein; format: biochemical

JAK2, sequence (O60674 whole entry, species assumed): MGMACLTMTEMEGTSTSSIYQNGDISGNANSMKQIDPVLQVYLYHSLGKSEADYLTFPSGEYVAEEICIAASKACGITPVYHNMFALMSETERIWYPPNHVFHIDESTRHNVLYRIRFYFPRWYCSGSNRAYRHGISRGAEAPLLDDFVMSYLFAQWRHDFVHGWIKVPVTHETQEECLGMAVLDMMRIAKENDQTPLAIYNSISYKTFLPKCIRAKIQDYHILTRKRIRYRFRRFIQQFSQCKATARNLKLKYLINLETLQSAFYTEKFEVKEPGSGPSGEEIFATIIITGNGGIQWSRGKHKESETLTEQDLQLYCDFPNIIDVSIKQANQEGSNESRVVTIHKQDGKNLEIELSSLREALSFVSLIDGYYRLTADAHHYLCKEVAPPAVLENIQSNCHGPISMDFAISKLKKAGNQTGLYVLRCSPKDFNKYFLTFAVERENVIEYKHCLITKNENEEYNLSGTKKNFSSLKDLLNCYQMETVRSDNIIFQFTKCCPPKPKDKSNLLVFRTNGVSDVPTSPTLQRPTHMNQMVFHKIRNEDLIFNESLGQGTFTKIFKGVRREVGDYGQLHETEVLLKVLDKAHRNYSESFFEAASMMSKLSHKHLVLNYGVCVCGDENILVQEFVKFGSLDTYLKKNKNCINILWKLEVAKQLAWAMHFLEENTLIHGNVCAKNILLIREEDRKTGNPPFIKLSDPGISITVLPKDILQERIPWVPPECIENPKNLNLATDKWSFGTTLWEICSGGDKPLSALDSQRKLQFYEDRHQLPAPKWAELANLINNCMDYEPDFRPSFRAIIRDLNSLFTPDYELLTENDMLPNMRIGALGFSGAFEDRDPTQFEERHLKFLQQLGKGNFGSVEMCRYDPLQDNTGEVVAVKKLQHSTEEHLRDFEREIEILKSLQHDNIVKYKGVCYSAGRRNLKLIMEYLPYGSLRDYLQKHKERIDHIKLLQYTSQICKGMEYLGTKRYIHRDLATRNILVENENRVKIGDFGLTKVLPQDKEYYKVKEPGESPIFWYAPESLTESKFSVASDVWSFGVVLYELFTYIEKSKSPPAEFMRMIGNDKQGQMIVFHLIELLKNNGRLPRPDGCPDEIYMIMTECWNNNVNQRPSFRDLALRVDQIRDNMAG

Row | Structure (SMILES) | JAK2/JAK1 (JAK2) | PI3K inhibition (PI3K)
1 | CCOc1c([C@H](C)n2nc(C)c3c(N)ncnc32)cc(Cl)c(F)c1[C@@H]1CNC(=O)C1 [compound of Formula I, (R)-4-(3-((S)-1-(4-amino-3-methyl-1H-pyrazolo[3,4-d]pyrimidin-1-yl)ethyl)-5-chloro-2-ethoxy-6-fluorophenyl)pyrrolidin-2-one] | – | found to be PI3K inhibitors
2 | N#CC[C@]1(n2cc(-c3ncnc4[nH]ccc34)cn2)C[C@H](N2CCN(C(=O)c3ccnc(C(F)(F)F)n3)CC2)C1 [Compound 10, [trans-1-[4-(7H-pyrrolo[2,3-d]pyrimidin-4-yl)-1H-pyrazol-1-yl]-3-(4-{[2-(trifluoromethyl)pyrimidin-4-yl]carbonyl}piperazin-1-yl)cyclobutyl]acetonitrile] | >10 | –
3 | N#CCC(C1CCN(c2nc3cccnc3o2)C1)n1cc(-c2ncnc3[nH]ccc23)cn1 (stereo not shown) [Compound 4, 3-(1-[1,3]oxazolo[5,4-b]pyridin-2-ylpyrrolidin-3-yl)-3-[4-(7H-pyrrolo[2,3-d]pyrimidin-4-yl)-1H-pyrazol-1-yl]propanenitrile] | >10 | –
4 | N#CCC1(n2cc(-c3ncnc4[nH]ccc34)cn2)CN(C2CCN(C(=O)Nc3ccc(F)cc3C(F)(F)F)CC2)C1 [Compound 8] | >10 | –
5 | N#CCC(CN1CCN(C(=O)c2ccc(C#N)cc2F)CC1)n1cc(-c2ncnc3[nH]ccc23)cn1 (stereo not shown) [Compound 5, 4-[(4-{3-cyano-2-[4-(7H-pyrrolo[2,3-d]pyrimidin-4-yl)-1H-pyrazol-1-yl]propyl}piperazin-1-yl)carbonyl]-3-fluorobenzonitrile] | >10 | –
6 | N#CC[C@]1(n2cc(-c3ncnc4[nH]ccc34)cn2)C[C@H](N2CCC(Oc3cc(CN4CCC[C@@H]4CO)cc(C(F)(F)F)n3)CC2)C1 [Compound 13, {trans-3-(4-{[4-{[(2R)-2-(hydroxymethyl)pyrrolidin-1-yl]methyl}-6-(trifluoromethyl)pyridin-2-yl]oxy}piperidin-1-yl)-1-[4-(7H-pyrrolo[2,3-d]pyrimidin-4-yl)-1H-pyrazol-1-yl]cyclobutyl}acetonitrile] | >10 | –
7 | C[C@@H](O)CNCc1cc(OC2CCN([C@H]3C[C@](CC#N)(n4cc(-c5ncnc6[nH]ccc56)cn4)C3)CC2)nc(C(F)(F)F)c1 [Compound 24, {trans-3-(4-{[4-({[(2R)-2-hydroxypropyl]amino}methyl)-6-(trifluoromethyl)pyridin-2-yl]oxy}piperidin-1-yl)-1-[4-(7H-pyrrolo[2,3-d]pyrimidin-4-yl)-1H-pyrazol-1-yl]cyclobutyl}acetonitrile] | >10 | –
8 | N#CC[C@]1(n2cc(-c3ncnc4[nH]ccc34)cn2)C[C@H](N2CCC(Oc3cc(CCO)cc(C(F)(F)F)n3)CC2)C1 [Compound 26, {trans-3-(4-{[4-(2-hydroxyethyl)-6-(trifluoromethyl)pyridin-2-yl]oxy}piperidin-1-yl)-1-[4-(7H-pyrrolo[2,3-d]pyrimidin-4-yl)-1H-pyrazol-1-yl]cyclobutyl}acetonitrile] | >10 | –
9 | CC(C)(O)c1cc(O[C@H]2CC[C@@H](N3CC(CC#N)(n4cc(-c5ncnc6[nH]ccc56)cn4)C3)CC2)nc(C(F)(F)F)c1 [Compound 20, {1-(cis-4-{[4-(1-hydroxy-1-methylethyl)-6-(trifluoromethyl)pyridin-2-yl]oxy}cyclohexyl)-3-[4-(7H-pyrrolo[2,3-d]pyrimidin-4-yl)-1H-pyrazol-1-yl]azetidin-3-yl}acetonitrile] | >10 | –
10 | C[C@H](O)CNCc1cc(OC2CCN([C@H]3C[C@](CC#N)(n4cc(-c5ncnc6[nH]ccc56)cn4)C3)CC2)nc(C(F)(F)F)c1 [Compound 25, {trans-3-(4-{[4-({[(2S)-2-hydroxypropyl]amino}methyl)-6-(trifluoromethyl)pyridin-2-yl]oxy}piperidin-1-yl)-1-[4-(7H-pyrrolo[2,3-d]pyrimidin-4-yl)-1H-pyrazol-1-yl]cyclobutyl}acetonitrile] | >10 | –
11 | N#CCC1(n2cc(-c3ncnc4[nH]ccc34)cn2)CN([C@H]2CC[C@@H](Oc3cc(CN4CC[C@@H](O)C4)cc(C(F)(F)F)n3)CC2)C1 [Compound 21, {1-(cis-4-{[4-{[(3R)-3-hydroxypyrrolidin-1-yl]methyl}-6-(trifluoromethyl)pyridin-2-yl]oxy}cyclohexyl)-3-[4-(7H-pyrrolo[2,3-d]pyrimidin-4-yl)-1H-pyrazol-1-yl]azetidin-3-yl}acetonitrile] | >10 | –
12 | N#CCC1(n2cc(-c3ncnc4[nH]ccc34)cn2)CN([C@H]2CC[C@@H](Oc3cc(CCO)nc(C(F)(F)F)n3)CC2)C1 [Compound 18, {1-(cis-4-{[6-(2-hydroxyethyl)-2-(trifluoromethyl)pyrimidin-4-yl]oxy}cyclohexyl)-3-[4-(7H-pyrrolo[2,3-d]pyrimidin-4-yl)-1H-pyrazol-1-yl]azetidin-3-yl)acetonitrile] | >10 | –
13 | N#CCC1(n2cc(-c3ncnc4[nH]ccc34)cn2)CN(C2CCN(C(=O)c3ccnc(C(F)(F)F)n3)CC2)C1 [Compound 9, [3-[4-(7H-pyrrolo[2,3-d]pyrimidin-4-yl)-1H-pyrazol-1-yl]-1-(1-{[2-(trifluoromethyl)pyrimidin-4-yl]carbonyl}piperidin-4-yl)azetidin-3-yl]acetonitrile] | >10 | –
14 | C[C@H](NC(=O)c1cc(F)c(N2CC(CC#N)(n3cc(-c4ncnc5[nH]ccc45)cn3)C2)cc1F)C(F)(F)F [Compound 16, 4-{3-(cyanomethyl)-3-[4-(7H-pyrrolo[2,3-d]pyrimidin-4-yl)-1H-pyrazol-1-yl]azetidin-1-yl}-2,5-difluoro-N-[(1S)-2,2,2-trifluoro-1-methylethyl]benzamide] | >10 | –

Further lines, with some results ahead:

Row | JAK2/JAK1 (JAK2) | Structure (SMILES) | PI3K inhibition (PI3K)
15 | >10 | CCNCc1cc(O[C@H]2CC[C@@H](N3CC(CC#N)(n4cc(-c5ncnc6[nH]ccc56)cn4)C3)CC2)nc(C(F)(F)F)c1 [Compound 19, {1-(cis-4-{[4-[(ethylamino)methyl]-6-(trifluoromethyl)pyridin-2-yl]oxy}cyclohexyl)-3-[4-(7H-pyrrolo[2,3-d]pyrimidin-4-yl)-1H-pyrazol-1-yl]azetidin-3-yl}acetonitrile] | –
16 | >10 | N#CCC1(n2cc(-c3ncnc4[nH]ccc34)cn2)CN(C2CCN(C(=O)c3ccnc(C(F)(F)F)c3F)CC2)C1 [Compound 7, {1-{1-[3-Fluoro-2-(trifluoromethyl)isonicotinoyl]piperidin-4-yl}-3-[4-(7H-pyrrolo[2,3-d]pyrimidin-4-yl)-1H-pyrazol-1-yl]azetidin-3-yl}acetonitrile] | –
17 | >10 | N#CC[C@]1(n2cc(-c3ncnc4[nH]ccc34)cn2)C[C@H](N2CCC(Oc3cc(CN4CC(O)C4)cc(C(F)(F)F)n3)CC2)C1 [Compound 11, {trans-3-(4-{[4-[(3-hydroxyazetidin-1-yl)methyl]-6-(trifluoromethyl)pyridin-2-yl]oxy}piperidin-1-yl)-1-[4-(7H-pyrrolo[2,3-d]pyrimidin-4-yl)-1H-pyrazol-1-yl]cyclobutyl}acetonitrile] | –
18 | >10 | N#CCC(CN1CCN(C(=O)c2ccc(C#N)cc2F)CC1)n1ccc(-c2ncnc3[nH]ccc23)c1 (stereo not shown) [Compound 6, 4-[(4-{3-cyano-2-[3-(7H-pyrrolo[2,3-d]pyrimidin-4-yl)-1H-pyrrol-1-yl]propyl}piperazin-1-yl)carbonyl]-3-fluorobenzonitrile] | –
19 | >10 | C[C@@H](CO)NCc1cc(OC2CCN([C@H]3C[C@](CC#N)(n4cc(-c5ncnc6[nH]ccc56)cn4)C3)CC2)nc(C(F)(F)F)c1 [Compound 23, {trans-3-(4-{[4-({[(1S)-2-hydroxy-1-methylethyl]amino}methyl)-6-(trifluoromethyl)pyridin-2-yl]oxy}piperidin-1-yl)-1-[4-(7H-pyrrolo[2,3-d]pyrimidin-4-yl)-1H-pyrazol-1-yl]cyclobutyl}acetonitrile] | –
20 | >10 | N#CCC(C1CCN(c2cccc(Cl)n2)C1)n1cc(-c2ncnc3[nH]ccc23)cn1 (single isomer, unassigned) [Compound 3, 3-[1-(6-chloropyridin-2-yl)pyrrolidin-3-yl]-3-[4-(7H-pyrrolo[2,3-d]pyrimidin-4-yl)-1H-pyrazol-1-yl]propanenitrile] | –
21 | >10 | N#CCC1(n2cc(-c3ncnc4[nH]ccc34)cn2)CN([C@H]2CC[C@@H](Oc3cc(CN4CC[C@H](O)C4)cc(C(F)(F)F)n3)CC2)C1 [Compound 22, {1-(cis-4-{[4-{[(3S)-3-hydroxypyrrolidin-1-yl]methyl}-6-(trifluoromethyl)pyridin-2-yl]oxy}cyclohexyl)-3-[4-(7H-pyrrolo[2,3-d]pyrimidin-4-yl)-1H-pyrazol-1-yl]azetidin-3-yl}acetonitrile] | –
22 | >10 | N#CC[C@]1(n2cc(-c3ncnc4[nH]ccc34)cn2)C[C@H](N2CCC(Oc3cc(CN4CCC[C@H]4CO)cc(C(F)(F)F)n3)CC2)C1 [Compound 12, {trans-3-(4-{[4-{[(2S)-2-(hydroxymethyl)pyrrolidin-1-yl]methyl}-6-(trifluoromethyl)pyridin-2-yl]oxy}piperidin-1-yl)-1-[4-(7H-pyrrolo[2,3-d]pyrimidin-4-yl)-1H-pyrazol-1-yl]cyclobutyl}acetonitrile] | –
